Reference: patent US20240209016A1, “FLUORESCENT NUCLEOSIDE PHOSPHATES” (STEALTH LABELS BIOTECH AB, priority 2021, published 2024)

Legend:
Huh-7 cells [1] = assay: Uptake kinetics monitored by flow cytometry; assay type: cell-based, human; conditions: 2.5 μM; for exposure time at which uptake reaches plateau / saturation: 5 min to 4 h exposure
Experimental: For flow cytometry experiments, cells were seeded in a 48-well plate as described above. For kinetics experiments of the uptake, solutions of 2.5 μM of compounds 7 or 17 in CCM were added. Control samples were CCM, containing an equal volume of DPBS instead of FBA-TP. All treatments were done in triplicate. The experiment was setup such that all samples could be harvested at the same time at the end of the experiment. The FBA-TP solutions where therefore added at different time points. At the end of the experiment, the cells were washed twice with DPBS, and thereafter harvested by addition of 0.25% trypsin-EDTA. The trypsin was neutralized by adding DPBS with 2% added FBS and samples were transferred to a 96 U-bottom well plate for high throughput readout.
Measurements were generally performed on a BD LSRFortessa flow cytometer with an BD High Throughput Sampler (HTS). The system was connected to the software BD FACSDiva. Samples were excited using a 405 nm laser and emission passed through a bandpass filter centred at 450 nm (±20 nm). Uptake kinetics experiments were repeated twice. For monophosphate compounds, a Luminex CellStream flow cytometer with a high throughput sampler (HTS) connected to the CellStream Acquisition software was used. Excitation wavelength was 405 nm, with the emission passing through a 456/51 nm bandpass filter.

Huh-7 cells [2] = assay: Dose response of cell uptake, fluorescence in cell lysate; assay type: cell-based, human; conditions: 24 h exposure
Description: Quantification in Cell Lysate: For dose response experiments of the uptake of compounds 7 and 17, total cell lysates of the exposed cells were collected and measured on an Optima Blue Fluostar plate reader (BMG Labtech) with lysis buffer as background. 2CNqATP was excited using 355 nm (±20 nm) filter and emission was collected at through a bandpass filter centred at 460 nm (±12 nm). pATP was excited using 380 nm (±5 nm) filter and emission bandpass filter centred at 410 nm (±5 nm). Lysate buffer fluorescence was subtracted as background, and the fluorescence intensities of the triplicates were averaged. The fluorescence intensity was normalized to the highest added concentration of the compounds (10 μM).
Dose-response experiments were performed at one selected time point (24 h) in order to investigate the concentration dependency of cellular FBA-TP uptake. At the end of exposure, the cells were washed and lysed. The fluorescence of the compounds in the lysate, reflecting the internalized FBA, was measured using a plate reader. […] Compounds 7 and 17 show very different uptake characteristics. Cellular uptake of 2CNqATP increases dramatically with small increases in concentration and reaches a maximum, indicative of uptake saturation, already when 2.5 μM FBA-TP is added to the cells. By contrast, the increase of pATP emission between 0 and 2.5 μM is very small, only 4% of that of 2CNqATP, but when FBA-TP concentration is doubled it increases about 7 times. By adding 10 μM FBA-TP the fluorescence increases about 25 times, compared to 2.5 μM added compound.

Huh-7 cells [3] = assay: Cellular incorporation into RNA (emission of extracted RNA); assay type: cell-based, human; conditions: 24 h exposure; for emission of RNA extracted from exposed cells (in-cellulo RNA labelling): excitation 350 nm (2CNqA) or 370 nm (pA)
Experimental: RNA Extraction: Cells were seeded in 12-well plates as described above. Treatment solutions were prepared by diluting compounds 7 and 17 to a concentration of 2.5 μM or 5 μM in CCM. Conditioned medium was removed from the cells and treatment solutions were added. For control cells CCM alone was added. Cells were incubated for 24 h at 37° C. and 5% CO2. For RNA extraction and purification, a QIAGEN RNeasy Mini Kit was used, following the manufacturer's protocol. Briefly, the cells were washed with DPBS, lysed, homogenized by 12 times passing it through a 20-gauge needle (0.9 mm outer diameter), and added to an equal volume of ethanol. The resulting solution was transferred to a RNeasy spin column and centrifuged. Then, binding buffer was added on top of the column, where after it was centrifuged again. The column-bound RNA was washed five times with washing buffer, with a centrifugation step between each addition. To elute the extracted RNA, 30 μL of the provided RNase-free water was applied to the column and centrifuged. This step was repeated twice to increase the yield of extracted RNA.
Three control samples were prepared to examine potential FBA-TP interferences with the extraction procedure, as well as non-covalent binding between the FBA-TP and RNA. 1) FBA-TP was added to the kit's lysate buffer to a concentration of 2.5 μM and treated in the same way starting from the homogenization step. 2) Unexposed cells were seeded and lysed as described above and FBA-TP was thereafter added directly to the lysate to make up a 2.5 μM final concentration. […] The concentration and purity of the RNA extracted from the unexposed cells were determined using a NanoDrop 2000 spectrophotometer (Thermo Scientific) and FBA-TP was added to reach a final concentration of 2.5 μM in the solution. […]
Absorption and Emission Readout of cellular RNA: Absorption spectra of extracted and purified RNA samples and controls were recorded on a Cary 4000 spectrometer (Agilent Technologies) between 200 nm and 600 nm. Emission spectra were measured on a SPEX Fluorolog 3 spectrofluorimeter (Jobin Yvon Horiba). […]

[4] = DPBS, room temperature; cited from earlier work

Substance	lag phase of uptake (Huh-7 cells [1])	increase in cellular fluorescence over time (comparison) (Huh-7 cells [1]; 5 min to 4 h)	exposure time at which uptake reaches plateau / saturation (Huh-7 cells [1])	fold increase of lysate fluorescence at 10 μM compared to 2.5 μM (Huh-7 cells [2])	fold increase of lysate fluorescence when concentration is doubled from 2.5 μM (Huh-7 cells [2])	increase of emission between 0 and 2.5 μM relative to that of 2CNqATP (Huh-7 cells [2])	emission of RNA extracted from exposed cells (in-cellulo RNA labelling) (Huh-7 cells [3])	ε260 [4]	exposure time at which fluorescence is significantly over the initial (t=0) level (Huh-7 cells [1])	added concentration at which uptake reaches maximum (saturation) (Huh-7 cells [2])	emission maximum of RNA extracted from exposed cells (Huh-7 cells [3]; excitation at 350 nm)
((2R,3S,4R,5R)-5-(2,3,5,6-tetraazacyclopenta[de]tetracen-2(6H)-yl)-3,4-dihydroxytetrahydrofuran-2-yl)methyl hydrogen triphosphate [pATP]	15 min	significantly slower	> 4 h	about 25 times	about 7 times	4%	on the same level as the controls	22300^27 M^−1 cm^−1			
((2R,3S,4R,5R)-5-(8-cyano-2,3,5,6-tetraazaaceanthrylen-2(6H)-yl)-3,4-dihydroxytetrahydrofuran-2-yl)methyl hydrogen triphosphate [2CNqATP]			2 h				significant emission peak	14600^26 M^−1 cm^−1	5 min	2.5 µM	460 nm
